A word on the IC50: it is the midpoint of a concentration-inhibition curve.

The results in this text go back to patent publication US20050148042A1, “Hybrid phosphoinositide phospholipids: compositions and uses” (priority 2002, published 2005).

For one assay, the target named is T1, GST-PLC δ1-PH domain (Homo sapiens, UniProt P51178).
T1 construct: made in house; host or cells: E. coli
T1 sequence (P51178 21-130 limits assumed): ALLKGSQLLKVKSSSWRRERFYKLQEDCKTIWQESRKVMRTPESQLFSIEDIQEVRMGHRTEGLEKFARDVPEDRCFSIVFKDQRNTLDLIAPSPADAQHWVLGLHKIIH
As to the kind of experiment: AlphaScreen competitive binding, biotinylated Pea-PI(4,5)P2 as probe lipid. Here is the method: In addition, competitive binding assays were conducted in which the GST-PLC δ1-PH protein was pre-incubated for 30 min with 10 nM to 10 fM of unlabeled diC4 Ptdlns(4,5)P2, Ptdlns(3,4,5)P3, or Pea-PI(4,5)P2 prior to addition of the other reagents, using biotinylated Pea-PI(4,5)P2 as the probe lipid.
These competitive binding experiments were similar to the binding experiment described above except that non biotinylated lipids are added to each reaction to compete with biotinylated Pea-PI(4,5)P2 for binding to PLC-δ 1-PH domain. For example, eight concentrations of PI(3,4,5)P3 diC4, PI(4,5)P2 diC4, and Pea-PI(4,5)P2 were added as competitors to separate wells in addition to 0.2 pmol/well PLC-δ-1-PH domain, 0.4 pmol/well of Pea-PI(4,5)P2, streptavidin donor, and anti-GST acceptor beads; and incubated as previously described. […] This 500 times better affinity of Pea-PI(4,5)P2 for PLC d1-PH domain compared to PI(3,4,5)P3 is fundamental to the development of a robust assay where one detects the specific PIPn product of a kinase or phosphatase in the presence of excess PIPn substrate.
A general note: Bead proximity is the source of the signal in Alpha formats.

Another assay concerns the target T2, GST-PLC δ1-PH (Homo sapiens, UniProt P51178).
T2 construct: made in house; host or cells: E. coli
T2 sequence (P51178 21-130 limits assumed): T1 sequence (P51178 21-130 limits assumed)
As to the kind of experiment: Protein-overlay binding to lipids spotted onto nitrocellulose. Particulars: 200 pmol to 6 pmol spotted onto nitrocellulose. From the text: In this Example, immobilized Pea-PIPns are readily and specifically recognized by lipid recognition proteins. According to this Example, six different quantities (from 200 pmol to 6 pmol) of Ptdlns(3,4)P2, Ptdlns(3,5)P2, Ptdlns(4,5)P2, Pea-PI(4,5)P2,Ptdlns(3,4,5)P3; Pea-PI(3,4,5P)3 PI and PE were spotted onto nitrocellulose, and binding of Glutathione S-Transferase (GST)-PLC δ1-PH and GST-General Receptor for Phosphoinositides (Grp1)-PH constructs was examined by a protein-overlay technique (described in Dowler, S., Kular, G., and Alessi, D. R. (2002) Sci STKE 2002, PL6) (recombinant GST tagged PLC δ1-PH and Grp1-PH domain proteins used in this Example were expressed in E. coli then purified using glutathione affinity resin (Amersham Biosciences, Piscataway, N.J.).

A further assay concerns anti-PIP3 antibody. As to the kind of experiment: Antibody binding to lipids covalently coupled to Maleic-Anhydride activated 96-well plate. Particulars: 50 pmol per well, absorbance at 450 nm. The protocol:
The ability of lipid recognition proteins to specifically recognize and bind to Pea-PIPns was tested by coupling Pea-PIPns (as well as amino PIPs with the same headgroups as controls) to polystyrene microtiter plates. Briefly, 50 pmol per well of amino PI(4,5)P2 (PIP2), amino PI(3,4,5)P3 (PIP3), Pea-PI(4,5)P2 (Pea-PIP2), and Pea-PI(3,4,5)P3 (Pea-PIP3) lipids in 100 μL PBS were coupled via their primary amine functional groups to triplicate wells of a Maleic-Anhydride activated 96-well plate (Pierce, Rockford, Ill.). Underivatized groups were reacted with 200 μL Tris-Glycine-SDS overnight before blocking with 200 μL 0.02% Ovalbumin in TBS. […] Specific binding was subsequently visualized by incubating with anti-mouse-HRP (horseradish peroxidase) secondary antibody (Sigma, St Louis, Mo.), washing as before, then adding tetramethylbenzadine (TMB) developing reagent (Sigma) and reading the absorbance at 450 nm in a plate reader.
Binding specificity of Pea-PIPs was further tested by coupling Pea-PIP2 and Pea-PIP3 (as well as amino PIPs with the same headgroups as controls) to polystyrene microtiter plates. […] Specific binding was subsequently visualized by incubating with anti-mouse-HRP secondary antibody (Sigma, St Louis, Mo.), washing as before, then adding Tetramethylbenzadine (TMB) developing reagent (Sigma) and reading the absorbance at 450 nm in a plate reader.

Where [1] appears, read: protein pre-incubated 30 min with 10 nM to 10 fM competitor.

Regarding `CCCC(=O)OCC(COP(=O)(O)OC1C(O)C(O)C(OP(=O)(O)O)C(OP(=O)(O)O)C1O)OC(=O)CCC` (stereo not drawn) [di-C4 Ptdlns(4,5)P2, reference compound], the “selectivity for displacement of GST-PLC δ1-PH, relative to di-C4 Ptdlns(3,4,5)P3” value at GST-PLC δ1-PH domain (setting [1]) is recorded as “Over 100 fold”.
Consider `CCCCCCCCCCCCCCCC(=O)O[C@H](COP(=O)(O)OCCN)[C@@H](COP(=O)(O)O[C@@H]1[C@H](O)[C@H](O)[C@@H](OP(=O)(O)O)[C@H](OP(=O)(O)O)[C@H]1O)OC(=O)CCCCCCCCCCCCCCC` [Pea-PI(4,5)P2, 1-[(2R,3R)-4-(2-Aminoethoxyphosphoryloxy)-2,3-di-O-palmitoylbutoxyphosphoryloxy]-4,5-myo-bisphosphate], for which the “recognition by GST-PLC δ1-PH” value at GST-PLC δ1-PH is on record as “able to bind the correct protein at lower concentrations than the corresponding diC16 phosphoinositides”. Besides, the IC50 at GST-PLC δ1-PH domain (0.2 pmol/well PLC-δ-1-PH domain, 0.4 pmol/well probe lipid, read-out: IC50 value as competitor) worked out at 140 nM. In addition, the “binding to the PH domain as unlabeled competitor” value on GST-PLC δ1-PH domain (setting [1]) is reported as “further increase in binding”. The “better affinity for PLC d1-PH domain compared to PI(3,4,5)P3” value at GST-PLC δ1-PH domain (ratio of IC50 values) was determined as 500 times. Besides, the “recognition by anti-PIP3 antibody” value with anti-PIP3 antibody is listed as “(but not Pea-PIP2) was recognized by the specific antibody”.
